Laboratory results from patent US11174439B2, “Method to inhibit polymerization in a process water” (Ecolab USA, Inc., priority 2016, dated 2021).
Where “and” joins values, the source holds several entries; their conditions need not be identical. Equal entries are not always repeated.

Assay: Pygas-water partition coefficient determination (simulated pygas / de-ionized water, HPLC-MS)
Assay type: physicochemical
Details: for [HTMPO] (ppm) in Undiluted Phase, Average / [HTMPOH] (ppm) in Undiluted Phase, Average / [sBuPDA] (ppm) in Undiluted Phase, Average: average of 3 trials ± standard uncertainty; for [HTMPO] (ppm) in Undiluted Phase / [HTMPOH] (ppm) in Undiluted Phase / [sBuPDA] (ppm) in Undiluted Phase: individual trials 1-3; for [HTMPO] (ppm) in Undiluted Phase: inhibitor 1.0 wt % total; for Partition Ratio (pygas/aqueous): simulated pygas vs de-ionized water, ± standard uncertainty
Procedure: Pygas-water partition coefficients are determined by measuring the concentration of a polymerization inhibitor in a pygas-water mixture. In some embodiments, a pygas from an actual process water sample is used as the pygas in the determination; in some such embodiments, an actual process water is used. In other embodiments, a simulated pygas is formed and water is added to the simulated pygas for the determination. For purposes of providing measurements related to the disclosures herein, a simulated pygas consisting essentially of a mixture of toluene, styrene, cyclohexane, n-hexane, and dicyclopentadiene is employed. Partition coefficient is determined by mixing equal volumes of de-ionized water and simulated pygas, then adding a potential polymerization inhibitor at a concentration range of about 0.1 wt % to 5 wt %, in some embodiments, followed by a period of vigorous mixing, then a period of standing undisturbed to allow the phases to separate; the relative concentration of a species in each phase determines the partition coefficient. For purposes of partition coefficients recited herein, the test is conducted at a target inhibitor concentration of 1 wt % (10,000 ppm) followed by vigorous mixing for 30 minutes, followed by allowing the mixture to stand substantially unperturbed for 30 minutes. The pygas and aqueous phases that result in the unperturbed mixture are separated and concentration of the potential polymerization inhibitor in each phase is quantified, for example by high performance liquid chromatography coupled with mass spectrometry analysis (HPLC-MS). The partition ratio, or partition coefficient, of the potential polymerization inhibitor between the pygas and aqueous phases is then calculated according to the formula
[formula] where P is the partition coefficient, [I]pygas is the concentration of the potential polymerization inhibitor in the pygas phase, and [I]aqueous is the concentration of potential polymerization inhibitor in the aqueous phase.
The partition ratio of the polymerization inhibitor […]-2,2,6,6-tetramethylpiperidinyl-1-oxyl (HTMPO) between pygas and aqueous phases was determined by the following procedure. HTMPO was added to a mixture of equal volumes of de-ionized water and simulated pyrolysis gasoline (pygas). The simulated pygas consisted of a mixture of toluene, styrene, cyclohexane, n-hexane, and dicyclopentadiene. The amounts of inhibitor and liquid phases used were such that the inhibitor was present at a total concentration of 1.0 wt % based on the weight of the combined phases.
The system consisting of the inhibitor, pygas phase, and aqueous phase was vigorously stirred for thirty minutes, after which time it was allowed to sit undisturbed for an additional thirty minutes. The immiscible pygas and aqueous phases were then separated.
A stock solution of known concentration of HTMPO in acetonitrile was diluted with water/acetonitrile to give five different solutions at concentrations spanning an appropriate working range of a high performance liquid chromatograph (HPLC) coupled to a mass spectrometer with an electrospray ionization (ESI) source. The five dilute solutions were analyzed as standards using HPLC-MS, and the areas of the peaks corresponding to HTMPO in these solutions were used to construct a calibration curve of peak area vs. concentration (mass fraction, ppm).
The pygas phase of unknown concentration of HTMPO, separated from the aqueous phase in the first part of the experiment, was diluted with water/acetonitrile to give a solution whose concentration was within the range of the calibration curve. The dilute pygas solution was analyzed by HPLC-MS, and the concentration of HTMPO in this pygas solution was calculated by interpolation of its HTMPO peak area into the calibration curve. The concentration of HTMPO in the original, undiluted pygas phase was calculated by applying the dilution factor to the interpolated concentration of the diluted solution. […]

CC1(C)CC(O)CC(C)(C)N1[O] [HTMPO, 4-hydroxy-2,2,6,6-tetramethylpiperidinyl-1-oxyl]
[HTMPO] (ppm) in Undiluted Phase, Average (Aqueous Phase): 7410.8 ± 453.5 ppm
[HTMPO] (ppm) in Undiluted Phase (Aqueous Phase): 7155.2 ppm and 7142.9 ppm and 7934.4 ppm
Partition Ratio (pygas/aqueous) (HTMPO): 0.079 ± 0.008
[HTMPO] (ppm) in Undiluted Phase, Average (Pygas Phase): 582.8 ± 47.0 ppm
[HTMPO] (ppm) in Undiluted Phase (Pygas Phase, equal volumes de-ionized water and simulated pygas): 597.8 ppm and 530.2 ppm and 620.5 ppm

CC1(C)CC(O)CC(C)(C)N1O [HTMPOH, 1,4-dihydroxy-2,2,6,6-tetramethylpiperidine]
[HTMPOH] (ppm) in Undiluted Phase, Average (Aqueous Phase): 2829.8 ± 79.0 ppm
[HTMPOH] (ppm) in Undiluted Phase (Aqueous Phase): 2807.5 ppm and 2764.3 ppm and 2917.6 ppm
Partition Ratio (pygas/aqueous) (HTMPOH): 0.0096 ± 0.0003
[HTMPOH] (ppm) in Undiluted Phase, Average (Pygas Phase): 27.2 ± 0.6 ppm
[HTMPOH] (ppm) in Undiluted Phase (Pygas Phase): 27.8 ppm and 26.6 ppm and 27.2 ppm

CCC(C)Nc1ccc(NC(C)CC)cc1 (stereo not drawn) [sBuPDA, N,N′-di-sec-butyl-1,4-phenylenediamine]
[sBuPDA] (ppm) in Undiluted Phase, Average (Aqueous Phase): 0.29 ± 0.03 ppm
[sBuPDA] (ppm) in Undiluted Phase (Aqueous Phase): 0.29 ppm and 0.26 ppm and 0.32 ppm
[sBuPDA] (ppm) in Undiluted Phase, Average (Pygas Phase): 4075 ± 161.6 ppm
[sBuPDA] (ppm) in Undiluted Phase (Pygas Phase): 4218.2 ppm and 4109.2 ppm and 3900.2 ppm
Partition Ratio (pygas/aqueous) (sBuPDA): 14000 ± 2000
